The supplement of paper PMC10307832

Legend:
Test in all cases: relative viability (nuclei count vs DMSO), 5 days (fraction); higher = more cells survive
[1] = compound: C(C(=O)C(=O)O)Br [Bromopyruvate] + N=C(N)NC(=N)NCCc1ccccc1 [Phenformin] (partner 250 µM)
How it was run: (§1)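 One day after seeding in 1536-well plates, lung cancer cell lines were dosed by pin tool. Dosing was either single-drug or a fixed anchor-drug dose plus five library-drug doses (not always all listed) in √10 steps. After 5 days, nuclei were stained in one fix-and-stain step and counted on 4× images, and relative viability is the nuclei count of treated wells over that of vehicle wells, given as the median of duplicate plates.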

[2] = compound: C(C(=O)C(=O)O)Br [Bromopyruvate] + CC(=O)Nc1cccc(-n2c(=O)n(C3CC3)c(=O)c3c(Nc4ccc(I)cc4F)n(C)c(=O)c(C)c32)c1 [Trametinib] (partner 0.02 µM)
How it was run: as §1

[3] = compound: CC(O)(CS(=O)(=O)c1ccc(F)cc1)C(=O)Nc1ccc(C#N)c(C(F)(F)F)c1 [Bicalutamide] + CC1(C)CCC(c2ccc(Cl)cc2)=C(CN2CCN(c3ccc(C(=O)NS(=O)(=O)c4ccc(N[C@H](CCN5CCOCC5)CSc5ccccc5)c(S(=O)(=O)C(F)(F)F)c4)cc3)CC2)C1 [Navitoclax] (partner 0.5 µM)
How it was run: as §1

[4] = compound: C(C(=O)C(=O)O)Br [Bromopyruvate] + Nc1ncn([C@H]2C[C@H](O)[C@@H](CO)O2)c(=O)n1 [Decitabine] (partner 2 µM)
How it was run: as §1

Cell Line | relative viability ([1]; first compound 1 µM) | relative viability ([1]; first compound 3.162 µM) | relative viability ([1]; first compound 10 µM) | relative viability ([1]; first compound 31.62 µM) | relative viability ([1]; first compound 100 µM) | relative viability ([2]; first compound 1 µM) | relative viability ([2]; first compound 3.162 µM) | relative viability ([2]; first compound 10 µM) | relative viability ([2]; first compound 31.62 µM) | relative viability ([2]; first compound 100 µM) | relative viability ([3]; first compound 0.08 µM) | relative viability ([3]; first compound 0.253 µM) | relative viability ([3]; first compound 0.8 µM) | relative viability ([3]; first compound 2.53 µM) | relative viability ([4]; first compound 1 µM) | relative viability ([4]; first compound 3.162 µM) | relative viability ([4]; first compound 10 µM) | relative viability ([4]; first compound 31.62 µM) | relative viability ([4]; first compound 100 µM)
CAL-12T | 0.556 | 0.491 | 0.667 | 0.58 | 0.529 | 0.302 | 0.285 | 0.393 | 0.347 | 0.307 | 1.22 | 1.39 | 1.35 | 1.09 |  |  |  |  | 
SK-LU-1 | 0.52 | 0.533 | 0.581 | 0.506 | 0.494 | 0.503 | 0.469 | 0.599 | 0.467 | 0.538 | 1.04 | 1.04 | 1.38 | 0.902 | 0.704 | 0.606 | 0.56 | 0.597 | 0.623
NCI-H1650 | 0.414 | 0.429 | 0.475 | 0.449 | 0.291 | 0.548 | 0.482 | 0.643 | 0.572 | 0.515 | 1.31 | 1.19 | 1.16 | 1.22 | 0.448 | 0.393 | 0.462 | 0.454 | 0.266
BEN | 0.279 | 0.265 | 0.266 | 0.262 | 0.279 | 1.03 | 0.983 | 1.18 | 0.97 | 1.2 | 0.0525 | 0.0535 | 0.0851 | 0.0653 | 0.726 | 0.685 | 0.773 | 0.617 | 0.674
EMC-BAC-2 | 0.517 | 0.519 | 0.637 | 0.548 | 0.571 | 0.753 | 1.01 | 0.985 |  | 0.959 | 1.19 | 1.11 | 1.21 | 1.16 | 0.918 | 1.04 | 1 |  | 0.921
LU99A | 0.751 | 0.753 | 0.89 | 0.921 | 0.794 | 0.521 | 0.531 | 0.621 | 0.564 | 0.661 | 0.756 | 0.779 | 1.01 | 0.742 | 0.894 | 0.903 | 0.979 | 0.949 | 0.95
ABC-1 | 0.24 | 0.262 | 0.271 | 0.262 | 0.239 |  |  |  |  |  |  |  |  |  | 0.888 |  |  |  | 0.885
NCI-H1299 |  |  |  |  |  |  |  |  |  |  | 1.02 | 1.04 | 1.03 | 1.04 |  |  |  |  | 
EBC-1 |  |  |  |  |  |  |  |  |  |  | 0.477 | 0.491 | 0.372 | 0.296 |  |  |  |  | 
NCI-H2342 | 0.574 | 0.645 | 0.613 | 0.479 | 0.488 | 0.757 | 0.912 | 0.779 | 0.696 | 0.736 |  |  |  |  | 0.746 | 0.682 | 0.676 | 0.695 | 0.629
